Measured values reported in patent US9738634B2, “Heterocyclic amide compound and herbicide” (SYNGENTA PARTICIPATIONS AG, priority 2013, dated 2017).

Key:
Type in all cases: in vivo
[1] = test system: catchweed; experiment: Test Example 3: weedkilling efficacy through soil treatment; O: catchweed; settings: treatment dosage 315 g/ha
How it was run: (§1)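 Crop and weed responses were judged three weeks after a uniform surface spray of the water-diluted emulsion at the given g/ha rate. Seeds sat beneath about 1.5 cm of sterilized diluvial soil, and boxes stood in a greenhouse at 25 to 30° C.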

[2] = test system: corn; experiment: Test Example 4: foliar treatment, effect on crop; c: corn; settings: treatment dosage 315 g/ha
How it was run: (§2)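 Seeds are spot-sown into sterilized diluvial soil and covered with about 1.5 cm of soil. After 14 days' greenhouse growth at 25 to 30° C, plants are sprayed on stems and leaves with diluted emulsion at the stated g/ha rate, then scored at 3 weeks.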

[3] = test system: wild oat; experiment: Test Example 3: weedkilling efficacy through soil treatment; G: wild oat; settings: treatment dosage 315 g/ha
How it was run: as §1

[4] = test system: corn; experiment: Test Example 3: soil treatment, effect on crop; c: corn; settings: treatment dosage 315 g/ha
How it was run: as §1

[5] = test system: beet; experiment: Test Example 4: foliar treatment, effect on crop; f: beet; settings: treatment dosage 315 g/ha
How it was run: as §2

[6] = test system: green foxtail; experiment: Test Example 4: weedkilling efficacy by foliar treatment; E: green foxtail; settings: treatment dosage 315 g/ha
How it was run: as §2

[7] = test system: wheat; experiment: Test Example 3: soil treatment, effect on crop; e: wheat; settings: treatment dosage 315 g/ha
How it was run: as §1

[8] = test system: Indian mallow; experiment: Test Example 4: weedkilling efficacy by foliar treatment; K: Indian mallow; settings: treatment dosage 315 g/ha
How it was run: as §2

[9] = test system: wheat; experiment: Test Example 4: foliar treatment, effect on crop; e: wheat; settings: treatment dosage 315 g/ha
How it was run: as §2

[10] = test system: chickweed; experiment: Test Example 3: weedkilling efficacy through soil treatment; N: chickweed; settings: treatment dosage 315 g/ha
How it was run: as §1

[11] = test system: Indian mallow; experiment: Test Example 3: weedkilling efficacy through soil treatment; K: Indian mallow; settings: treatment dosage 315 g/ha
How it was run: as §1

[12] = test system: soybean; experiment: Test Example 4: foliar treatment, effect on crop; d: soybean; settings: treatment dosage 315 g/ha
How it was run: as §2

[13] = test system: black-grass; experiment: Test Example 3: weedkilling efficacy through soil treatment; H: black-grass; settings: treatment dosage 315 g/ha
How it was run: as §1

[14] = test system: directly sown rice; experiment: Test Example 4: foliar treatment, effect on crop; b: directly sown rice; settings: treatment dosage 315 g/ha
How it was run: as §2

[15] = test system: crabgrass; experiment: Test Example 3: weedkilling efficacy through soil treatment; D: crabgrass; settings: treatment dosage 315 g/ha
How it was run: as §1

[16] = test system: birds-eye speedwell; experiment: Test Example 4: weedkilling efficacy by foliar treatment; p: birds-eye speedwell; settings: treatment dosage 315 g/ha
How it was run: as §2

[17] = test system: crabgrass; experiment: Test Example 4: weedkilling efficacy by foliar treatment; D: crabgrass; settings: treatment dosage 315 g/ha
How it was run: as §2

[18] = test system: catchweed; experiment: Test Example 4: weedkilling efficacy by foliar treatment; O: catchweed; settings: treatment dosage 315 g/ha
How it was run: as §2

[19] = test system: fig-leafed goosefoot; experiment: Test Example 4: weedkilling efficacy by foliar treatment; M: fig-leafed goosefoot; settings: treatment dosage 315 g/ha
How it was run: as §2

[20] = test system: chickweed; experiment: Test Example 4: weedkilling efficacy by foliar treatment; N: chickweed; settings: treatment dosage 315 g/ha
How it was run: as §2

[21] = test system: fig-leafed goosefoot; experiment: Test Example 3: weedkilling efficacy through soil treatment; M: fig-leafed goosefoot; settings: treatment dosage 315 g/ha
How it was run: as §1

[22] = test system: Italian ryegrass; experiment: Test Example 3: weedkilling efficacy through soil treatment; I: Italian ryegrass; settings: treatment dosage 315 g/ha
How it was run: as §1

[23] = test system: black-grass; experiment: Test Example 4: weedkilling efficacy by foliar treatment; H: black-grass; settings: treatment dosage 315 g/ha
How it was run: as §2

[24] = test system: beet; experiment: Test Example 3: soil treatment, effect on crop; f: beet; settings: treatment dosage 315 g/ha
How it was run: as §1

[25] = test system: birds-eye speedwell; experiment: Test Example 3: weedkilling efficacy through soil treatment; p: birds-eye speedwell; settings: treatment dosage 315 g/ha
How it was run: as §1

[26] = test system: redroot pigweed; experiment: Test Example 4: weedkilling efficacy by foliar treatment; L: redroot pigweed; settings: treatment dosage 315 g/ha
How it was run: as §2

[27] = test system: wild oat; experiment: Test Example 4: weedkilling efficacy by foliar treatment; G: wild oat; settings: treatment dosage 315 g/ha
How it was run: as §2

[28] = test system: green foxtail; experiment: Test Example 3: weedkilling efficacy through soil treatment; E: green foxtail; settings: treatment dosage 315 g/ha
How it was run: as §1

[29] = test system: soybean; experiment: Test Example 3: soil treatment, effect on crop; d: soybean; settings: treatment dosage 315 g/ha
How it was run: as §1

[30] = test system: Italian ryegrass; experiment: Test Example 4: weedkilling efficacy by foliar treatment; I: Italian ryegrass; settings: treatment dosage 315 g/ha
How it was run: as §2

[31] = test system: redroot pigweed; experiment: Test Example 3: weedkilling efficacy through soil treatment; L: redroot pigweed; settings: treatment dosage 315 g/ha
How it was run: as §1

[32] = test system: directly sown rice; experiment: Test Example 3: soil treatment, effect on crop; b: directly sown rice; settings: treatment dosage 315 g/ha
How it was run: as §1

[33] = test system: bulrush; experiment: Test Example 2: weedkilling efficacy, growth period weed treatment in the submerged state; B: bulrush; settings: treatment dosage 252 g/ha
How it was run: (§3)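 Seedlings at 1-2 leaves in 4 cm-deep submerged alluvial soil received emulsion formulations on the water surface, dosed per hectare; effects were judged 3 weeks on.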

[34] = test system: bulrush; experiment: Test Example 1: weedkilling efficacy, preemergent weed treatment in the submerged state; B: bulrush; settings: treatment dosage 252 g/ha
How it was run: (§4)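 Submerged pre-emergence treatment, water-surface application of compound emulsion at g/ha dosages; 4 cm flooded alluvial soil, weeds sown and 2.5-leaf rice transplanted same day. Rated after 3 weeks, greenhouse.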

[35] = test system: barnyard grass; experiment: Test Example 2: weedkilling efficacy, growth period weed treatment in the submerged state; A: barnyard grass; settings: treatment dosage 252 g/ha
How it was run: as §3

[36] = test system: oval-leafed pondweed; experiment: Test Example 2: weedkilling efficacy, growth period weed treatment in the submerged state; C: oval-leafed pondweed; settings: treatment dosage 252 g/ha
How it was run: as §3

[37] = test system: barnyard grass; experiment: Test Example 1: weedkilling efficacy, preemergent weed treatment in the submerged state; A: barnyard grass; settings: treatment dosage 252 g/ha
How it was run: as §4

[38] = test system: transplanted rice; experiment: Test Example 1: preemergent weed treatment in the submerged state, effect on crop; a: transplanted rice; settings: treatment dosage 252 g/ha
How it was run: as §4

[39] = test system: oval-leafed pondweed; experiment: Test Example 1: weedkilling efficacy, preemergent weed treatment in the submerged state; C: oval-leafed pondweed; settings: treatment dosage 252 g/ha
How it was run: as §4

Structure (SMILES)	O (catchweed) weedkilling efficacy grade [1]	c (corn) effect on crop grade [2]	G (wild oat) weedkilling efficacy grade [3]	c (corn) effect on crop grade [4]	f (beet) effect on crop grade [5]	E (green foxtail) weedkilling efficacy grade [6]	e (wheat) effect on crop grade [7]	K (Indian mallow) weedkilling efficacy grade [8]	e (wheat) effect on crop grade [9]	N (chickweed) weedkilling efficacy grade [10]	K (Indian mallow) weedkilling efficacy grade [11]	d (soybean) effect on crop grade [12]	H (black-grass) weedkilling efficacy grade [13]	b (directly sown rice) effect on crop grade [14]	D (crabgrass) weedkilling efficacy grade [15]	P (birds-eye speedwell) weedkilling efficacy grade [16]	D (crabgrass) weedkilling efficacy grade [17]	O (catchweed) weedkilling efficacy grade [18]	M (fig-leafed goosefoot) weedkilling efficacy grade [19]	N (chickweed) weedkilling efficacy grade [20]	further results
CC1=C(c2cccnc2F)C(=O)N(C(C)(C)C(=O)Nc2cc(C(F)(F)F)ccn2)CO1 [B-2-17, 2-[5-(2-fluoropyridin-3-yl)-6-methyl-4-oxo-2H-1,3-oxazin-3(4H)-yl]-2-methyl-N-[4-(trifluoromethyl)pyridin-2-yl] propionamide]	1 (weed kill ratio 5% or more, less than 20%)	3 (weed kill ratio 40% or more, less than 70%)	5 (weed kill ratio 90% or more, (practically complete withering))	2 (weed kill ratio 20% or more, less than 40%)	2 (weed kill ratio 20% or more, less than 40%)	5 (weed kill ratio 90% or more, (practically complete withering))	1 (weed kill ratio 5% or more, less than 20%)	1 (weed kill ratio 5% or more, less than 20%)	0 (weed kill ratio 5% or less (practically no effect))	3 (weed kill ratio 40% or more, less than 70%)	2 (weed kill ratio 20% or more, less than 40%)	0 (weed kill ratio 5% or less (practically no effect))	5 (weed kill ratio 90% or more, (practically complete withering))	5 (weed kill ratio 90% or more, (practically complete withering))	5 (weed kill ratio 90% or more, (practically complete withering))	2 (weed kill ratio 20% or more, less than 40%)	5 (weed kill ratio 90% or more, (practically complete withering))	0 (weed kill ratio 5% or less (practically no effect))	2 (weed kill ratio 20% or more, less than 40%)	2 (weed kill ratio 20% or more, less than 40%)	M (fig-leafed goosefoot) weedkilling efficacy grade [21]: 3 (weed kill ratio 40% or more, less than 70%); I (Italian ryegrass) weedkilling efficacy grade [22]: 5 (weed kill ratio 90% or more, (practically complete withering)); H (black-grass) weedkilling efficacy grade [23]: 4 (weed kill ratio 70% or more, less than 90%); f (beet) effect on crop grade [24]: 0 (weed kill ratio 5% or less (practically no effect)); P (birds-eye speedwell) weedkilling efficacy grade [25]: 5 (weed kill ratio 90% or more, (practically complete withering)); L (redroot pigweed) weedkilling efficacy grade [26]: 3 (weed kill ratio 40% or more, less than 70%); G (wild oat) weedkilling efficacy grade [27]: 4 (weed kill ratio 70% or more, less than 90%); E (green foxtail) weedkilling efficacy grade [28]: 5 (weed kill ratio 90% or more, (practically complete withering)); d (soybean) effect on crop grade [29]: 2 (weed kill ratio 20% or more, less than 40%); I (Italian ryegrass) weedkilling efficacy grade [30]: 5 (weed kill ratio 90% or more, (practically complete withering)); L (redroot pigweed) weedkilling efficacy grade [31]: 2 (weed kill ratio 20% or more, less than 40%); b (directly sown rice) effect on crop grade [32]: 4 (weed kill ratio 70% or more, less than 90%)
CC1=C(c2ccccc2)C(=O)N(C(C)(C)C(=O)Nc2cc(C(F)(F)F)cc(Cl)n2)CO1 [B-2-37]	4 (weed kill ratio 70% or more, less than 90%)	4 (weed kill ratio 70% or more, less than 90%)	5 (weed kill ratio 90% or more, (practically complete withering))	1 (weed kill ratio 5% or more, less than 20%)	4 (weed kill ratio 70% or more, less than 90%)	5 (weed kill ratio 90% or more, (practically complete withering))	0 (weed kill ratio 5% or less (practically no effect))	4 (weed kill ratio 70% or more, less than 90%)	1 (weed kill ratio 5% or more, less than 20%)	4 (weed kill ratio 70% or more, less than 90%)	4 (weed kill ratio 70% or more, less than 90%)	3 (weed kill ratio 40% or more, less than 70%)	5 (weed kill ratio 90% or more, (practically complete withering))	4 (weed kill ratio 70% or more, less than 90%)	5 (weed kill ratio 90% or more, (practically complete withering))	4 (weed kill ratio 70% or more, less than 90%)	5 (weed kill ratio 90% or more, (practically complete withering))	3 (weed kill ratio 40% or more, less than 70%)	3 (weed kill ratio 40% or more, less than 70%)	4 (weed kill ratio 70% or more, less than 90%)	B (bulrush) weedkilling efficacy grade [33]: 5 (weed kill ratio 90% or more, (practically complete withering)); B (bulrush) weedkilling efficacy grade [34]: 5 (weed kill ratio 90% or more, (practically complete withering)); A (barnyard grass) weedkilling efficacy grade [35]: 5 (weed kill ratio 90% or more, (practically complete withering)); C (oval-leafed pondweed) weedkilling efficacy grade [36]: 5 (weed kill ratio 90% or more, (practically complete withering)); A (barnyard grass) weedkilling efficacy grade [37]: 5 (weed kill ratio 90% or more, (practically complete withering)); M (fig-leafed goosefoot) weedkilling efficacy grade [21]: 4 (weed kill ratio 70% or more, less than 90%); I (Italian ryegrass) weedkilling efficacy grade [22]: 5 (weed kill ratio 90% or more, (practically complete withering)); H (black-grass) weedkilling efficacy grade [23]: 4 (weed kill ratio 70% or more, less than 90%); f (beet) effect on crop grade [24]: 4 (weed kill ratio 70% or more, less than 90%); L (redroot pigweed) weedkilling efficacy grade [26]: 4 (weed kill ratio 70% or more, less than 90%); G (wild oat) weedkilling efficacy grade [27]: 3 (weed kill ratio 40% or more, less than 70%); a (transplanted rice) effect on crop grade [38]: 2 (weed kill ratio 20% or more, less than 40%); C (oval-leafed pondweed) weedkilling efficacy grade [39]: 5 (weed kill ratio 90% or more, (practically complete withering)); E (green foxtail) weedkilling efficacy grade [28]: 5 (weed kill ratio 90% or more, (practically complete withering)); d (soybean) effect on crop grade [29]: 0 (weed kill ratio 5% or less (practically no effect)); I (Italian ryegrass) weedkilling efficacy grade [30]: 4 (weed kill ratio 70% or more, less than 90%); L (redroot pigweed) weedkilling efficacy grade [31]: 5 (weed kill ratio 90% or more, (practically complete withering)); b (directly sown rice) effect on crop grade [32]: 3 (weed kill ratio 40% or more, less than 70%)
